Experimental findings from patent US20230064983A1 (priority 2020, published 2023) are described below.

The target in assay [1] is T1, EGFR with insertion SVD between D770 and N771 (mutEGFR D770_N771insSVD) (Homo sapiens, UniProt P00533, DUP768-770).
T1 construct: amino acids R669 to A1210; made in house; host or cells: Sf9 insect cells (baculovirus)
As to the kind of experiment: Exon20-Mutant-EGFR(D770_N771insSVD) kinase assay (TR-FRET). It counts as biochemical. The conditions noted are these: 2 mM ATP, Table 2.

In another assay the target is T2, Bub1 (Homo sapiens, UniProt O43683).
T2 construct: catalytic domain of human Bub1 (amino acids 704-1085); His6 (N); made in house; host or cells: insect cells (Hi5)
T2 sequence (O43683 704-1085): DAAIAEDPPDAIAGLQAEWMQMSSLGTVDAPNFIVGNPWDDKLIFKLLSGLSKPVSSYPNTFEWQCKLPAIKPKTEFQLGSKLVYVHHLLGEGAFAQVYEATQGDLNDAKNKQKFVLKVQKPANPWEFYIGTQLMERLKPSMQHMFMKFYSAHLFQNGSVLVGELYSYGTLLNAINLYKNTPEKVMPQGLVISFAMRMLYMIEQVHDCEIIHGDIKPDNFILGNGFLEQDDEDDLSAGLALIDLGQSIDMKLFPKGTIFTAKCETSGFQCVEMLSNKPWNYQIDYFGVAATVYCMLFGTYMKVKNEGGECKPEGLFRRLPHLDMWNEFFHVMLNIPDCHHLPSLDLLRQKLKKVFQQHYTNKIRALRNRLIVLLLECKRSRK
As to the kind of experiment: Bub1 high ATP kinase assay (TR-FRET). It counts as biochemical. The conditions noted are these: 2 mM ATP, Table 3. In a few lines: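 Enzyme was His6-tagged human Bub1 catalytic domain (aa 704-1085) from Hi5 insect cells, typically about 200 ng/ml, with a biotinylated peptide substrate at high ATP. Reaction ran 60 min at 22 °C, then was stopped with EDTA. Phosphopeptide was detected by TR-FRET (anti-phosphoserine antibody, Eu-labelled anti-mouse IgG, streptavidin-XL665), read as the 665/620 nm emission ratio.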
A general note: TR-FRET usually uses a lanthanide donor and a delayed reading to cut background.

The target of assay [2] is Ba/F3-EGFR-D770_N771insSVD cells (Homo sapiens, UniProt P00533, DUP768-770, cells depend on it). As to the kind of experiment: Ba/F3 cell survival assay, EGFR D770_N771insSVD. The format is cell-based. The conditions noted are these: Cell Titer-Glo, 48 h, without IL-3; Table 4; read-out: BA/F3 (insSVD) IC50. (ATP-based viability assays read luminescence as a measure of living cells.)
Ba/F3-EGFR-D770_N771insSVD cells, sequence (P00533 with tags, fused parts or gaps DUP768-770): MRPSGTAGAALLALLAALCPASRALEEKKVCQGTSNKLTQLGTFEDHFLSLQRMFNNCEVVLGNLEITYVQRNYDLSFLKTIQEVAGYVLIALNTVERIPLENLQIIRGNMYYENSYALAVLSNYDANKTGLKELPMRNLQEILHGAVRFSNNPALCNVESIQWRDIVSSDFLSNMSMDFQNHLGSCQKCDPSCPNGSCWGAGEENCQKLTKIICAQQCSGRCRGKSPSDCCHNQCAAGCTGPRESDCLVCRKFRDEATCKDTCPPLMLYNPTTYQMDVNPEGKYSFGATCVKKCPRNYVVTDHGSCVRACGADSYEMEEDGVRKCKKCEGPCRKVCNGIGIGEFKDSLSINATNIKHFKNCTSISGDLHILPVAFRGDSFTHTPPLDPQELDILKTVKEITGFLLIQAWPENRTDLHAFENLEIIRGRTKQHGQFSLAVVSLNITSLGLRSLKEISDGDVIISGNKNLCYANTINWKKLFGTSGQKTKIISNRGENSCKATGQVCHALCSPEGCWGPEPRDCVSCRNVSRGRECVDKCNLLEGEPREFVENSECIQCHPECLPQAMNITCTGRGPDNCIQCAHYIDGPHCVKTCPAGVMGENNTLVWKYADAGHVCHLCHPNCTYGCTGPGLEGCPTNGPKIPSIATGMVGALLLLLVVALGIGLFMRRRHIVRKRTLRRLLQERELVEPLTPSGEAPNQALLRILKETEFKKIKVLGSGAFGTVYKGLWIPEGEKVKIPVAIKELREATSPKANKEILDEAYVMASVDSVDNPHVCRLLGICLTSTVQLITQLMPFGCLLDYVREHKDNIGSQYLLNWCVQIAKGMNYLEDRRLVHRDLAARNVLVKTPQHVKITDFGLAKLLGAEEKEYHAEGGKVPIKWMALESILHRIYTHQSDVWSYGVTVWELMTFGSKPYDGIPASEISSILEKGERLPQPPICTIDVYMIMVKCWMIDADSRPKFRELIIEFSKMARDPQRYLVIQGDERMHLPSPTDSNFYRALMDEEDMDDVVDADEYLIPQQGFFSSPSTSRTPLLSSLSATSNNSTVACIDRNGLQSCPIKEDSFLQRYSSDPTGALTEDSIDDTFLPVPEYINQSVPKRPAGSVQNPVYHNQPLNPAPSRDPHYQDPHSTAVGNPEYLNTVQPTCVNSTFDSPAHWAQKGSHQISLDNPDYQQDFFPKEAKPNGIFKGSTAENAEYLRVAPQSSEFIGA

In another assay the target is Ba/F3-EGFR-WT cells (Homo sapiens, UniProt P00533). Briefly: Ba/F3 cell survival assay, wild type EGFR. It counts as cell-based. The conditions noted are these: Cell Titer-Glo, 48 h, with 10 ng/mL EGF; Table 4; read-out: BA/F3 (wild type) IC50.
Ba/F3-EGFR-WT cells, sequence (P00533 whole entry, looked up, change not shown): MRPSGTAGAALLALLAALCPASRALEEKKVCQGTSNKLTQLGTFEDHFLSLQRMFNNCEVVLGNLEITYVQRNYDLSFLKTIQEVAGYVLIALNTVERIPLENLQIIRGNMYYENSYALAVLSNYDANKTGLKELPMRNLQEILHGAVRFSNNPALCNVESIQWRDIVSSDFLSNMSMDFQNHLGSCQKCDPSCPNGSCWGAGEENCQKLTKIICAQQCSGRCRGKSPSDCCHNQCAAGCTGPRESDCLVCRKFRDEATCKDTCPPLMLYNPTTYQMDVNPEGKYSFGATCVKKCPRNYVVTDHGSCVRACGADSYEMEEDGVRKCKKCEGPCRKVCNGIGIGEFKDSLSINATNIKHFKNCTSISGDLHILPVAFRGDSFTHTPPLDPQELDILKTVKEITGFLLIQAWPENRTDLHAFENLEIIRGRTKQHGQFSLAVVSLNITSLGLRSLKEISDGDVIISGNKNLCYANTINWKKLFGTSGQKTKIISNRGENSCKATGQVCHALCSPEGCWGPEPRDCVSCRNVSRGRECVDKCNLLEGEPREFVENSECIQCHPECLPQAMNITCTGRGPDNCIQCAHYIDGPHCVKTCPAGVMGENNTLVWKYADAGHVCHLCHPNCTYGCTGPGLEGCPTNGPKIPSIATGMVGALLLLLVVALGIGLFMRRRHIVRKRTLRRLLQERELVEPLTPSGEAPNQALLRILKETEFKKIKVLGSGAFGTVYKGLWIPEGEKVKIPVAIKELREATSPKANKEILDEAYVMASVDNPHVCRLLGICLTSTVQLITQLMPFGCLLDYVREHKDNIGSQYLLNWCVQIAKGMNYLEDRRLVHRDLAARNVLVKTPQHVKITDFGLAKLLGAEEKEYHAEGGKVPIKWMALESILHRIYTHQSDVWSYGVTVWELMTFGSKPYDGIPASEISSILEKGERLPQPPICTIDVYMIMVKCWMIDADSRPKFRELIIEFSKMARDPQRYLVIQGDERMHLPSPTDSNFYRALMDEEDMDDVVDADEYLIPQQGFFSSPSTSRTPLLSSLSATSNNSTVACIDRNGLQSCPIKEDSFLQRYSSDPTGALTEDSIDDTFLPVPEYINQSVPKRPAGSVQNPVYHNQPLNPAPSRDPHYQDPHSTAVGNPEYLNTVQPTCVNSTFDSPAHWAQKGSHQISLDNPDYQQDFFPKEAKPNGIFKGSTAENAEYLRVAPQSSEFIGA
The mark [3] stands for this setting: Bub1 high ATP (2 mM) IC50, TR-FRET.
The mark [4] stands for this setting: read-out: Bub1 high ATP (2 mM) IC50, TR-FRET.

Several values for one entry are separate records, joined by “and”; a condition that tells them apart may be missing. Equal entries are not always repeated. Where two headings read alike, the source gives them in different places. A value given as a limit tells only on which side of the number the result lay.

T1 sequence (P00533 other isoform, or with tags, fused parts or gaps DUP768-770): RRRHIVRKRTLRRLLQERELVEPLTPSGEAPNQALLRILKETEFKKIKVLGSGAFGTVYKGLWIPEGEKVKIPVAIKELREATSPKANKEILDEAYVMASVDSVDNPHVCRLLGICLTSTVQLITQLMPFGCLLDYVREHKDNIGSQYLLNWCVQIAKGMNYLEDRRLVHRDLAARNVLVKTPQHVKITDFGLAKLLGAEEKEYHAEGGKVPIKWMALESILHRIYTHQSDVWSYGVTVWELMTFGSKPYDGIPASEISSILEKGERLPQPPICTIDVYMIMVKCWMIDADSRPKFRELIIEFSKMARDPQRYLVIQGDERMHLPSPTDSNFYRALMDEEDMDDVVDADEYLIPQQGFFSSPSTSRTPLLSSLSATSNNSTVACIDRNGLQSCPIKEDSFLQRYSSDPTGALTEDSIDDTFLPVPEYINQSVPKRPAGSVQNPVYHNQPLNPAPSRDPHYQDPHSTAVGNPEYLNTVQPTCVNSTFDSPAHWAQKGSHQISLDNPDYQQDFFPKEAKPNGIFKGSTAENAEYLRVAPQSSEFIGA

What is called IC50 is the point on the concentration scale where inhibition reaches its midpoint. Consider `COc1c(Cl)cccc1Nc1c(-c2ccncc2OC[C@@H]2CCCO2)[nH]c2c1C(=O)NC(C(F)(F)F)C2` (single isomer, unassigned) [Example 40], for which, in assay [1], the “mutEGFR (D770_N771insSVD) kinase assay IC50” value (“mutEGFR” for short) was 0.0981 nM and <0.0725 nM. The compound further displayed an IC50 on Bub1 (setting [3]) of 399 nM. The values for the GI50 (in assay [2]; at Ba/F3-EGFR-WT cells) were 64.3 nM and 480 nM, respectively.

Turning to `COc1c(Cl)cccc1Nc1c(-c2ccncc2OCC2COC(C)(C)CO2)[nH]c2c1C(=O)NC1(CCC1)C2` (single isomer, unassigned) [Example 130, 3′-(3-chloro-2-methoxyanilino)-2′-{3-[(5,5-dimethyl-1,4-dioxan-2-yl)methoxy]pyridin-4-yl}-1′,7′-dihydrospiro[cyclobutane-1,6′-pyrrolo[3,2-c]pyridin]-4′(5′H)-one], in assay [1], the “mutEGFR” value turned out to be 0.256 nM. Inhibition against Bub1 (setting [3]) was half-maximal at 768 nM (IC50). The GI50 in assay [2] was determined as 8.01 nM; at Ba/F3-EGFR-WT cells it was 418 nM.

In the case of `COc1c(Cl)cccc1Nc1c(-c2ccncc2OC[C@@H]2CCCO2)[nH]c2c1C(=O)NC(C)C2` (mixture of isomers) [Example 3, 3-(3-chloro-2-methoxyanilino)-6-methyl-2-(3-{[(2S)-oxolan-2-yl]methoxy}pyridin-4-yl)-1,5,6,7-tetrahydro-4H-pyrrolo[3,2-c]pyridin-4-one], the “mutEGFR” value in assay [1] is 0.0854 nM. Further, the IC50 against Bub1 (setting [3]) turned out to be 5390 nM. Besides, the GI50 in assay [2] stood at 28.5 nM; at Ba/F3-EGFR-WT cells, 328 nM.

As to `COc1c(Cl)cccc1Nc1c(-c2ccncc2OCC2OCCCC2(F)F)[nH]c2c1C(=O)N[C@H](C)C2` (single isomer, unassigned) [Example 75], in assay [1], the “mutEGFR” value was found to be 0.104 nM. Besides, at Bub1 (setting [3]), the midpoint of inhibition, the IC50, lay at 11100 nM. In addition, the GI50 in assay [2] was determined as 18.2 nM; on Ba/F3-EGFR-WT cells, 264 nM.

Regarding `COc1c(Cl)cccc1Nc1c(-c2ccncc2OC[C@@H]2CCCO2)[nH]c2c1C(=O)NC1CCCC21` (stereo in doubt) [Example 55, (5aR*,8aS*)-3-(3-chloro-2-methoxyanilino)-2-(3-{[(2S)-oxolan-2-yl]methoxy}-4-pyridyl)-5,5a,6,7,8,8a-hexahydrocyclopenta[b]pyrrolo[2,3-d]pyridin-4(1H)-one], the “mutEGFR” value in assay [1] is 0.239 nM. Besides, the IC50 against Bub1 (setting [3]) was 758 nM. The GI50 came out at 75.1 nM in assay [2] and 978 nM at Ba/F3-EGFR-WT cells.

For the compound `Cc1c(Cl)cccc1Nc1c(-c2ccncc2OC[C@@H]2CN(C)CCO2)[nH]c2c1C(=O)N[C@H](C)C2` [Example 107, (6R)-3-(3-chloro-2-methylanilino)-6-methyl-2-(3-{[(2S)-4-methylmorpholin-2-yl]methoxy}pyridin-4-yl)-1,5,6,7-tetrahydro-4H-pyrrolo[3,2-c]pyridin-4-one], the “mutEGFR” value in assay [1] came out at 0.115 nM. On Bub1 (setting [3]), this compound had an IC50 greater than 20000 nM. For the same compound, the GI50 came out at 25 nM in assay [2] and 546 nM on Ba/F3-EGFR-WT cells.

As for `COc1c(Cl)cccc1Nc1c(-c2ccncc2OCC2COC(C)(C)CO2)[nH]c2c1C(=O)NC1(CC1)C2` (single isomer, unassigned) [Example 134, 3′-(3-chloro-2-methoxyanilino)-2′-(3-{[5,5-dimethyl-1,4-dioxan-2-yl]methoxy}pyridin-4-yl)-1′,7′-dihydrospiro[cyclopropane-1,6′-pyrrolo[3,2-c]pyridin]-4′(5′H)-one], in assay [1], the “mutEGFR” value was 0.179 nM. On Bub1 (setting [3]), this compound registered an IC50 of 1160 nM. Also, the GI50 in assay [2] was found to be 92.8 nM; at Ba/F3-EGFR-WT cells it was 718 nM.

In the case of `COc1c(Cl)cccc1Nc1c(-c2ccncc2OCC2CCCCN2C)[nH]c2c1C(=O)N[C@H](C)C2` (single isomer, unassigned) [Example 85], the “mutEGFR” value in assay [1] worked out at 0.948 nM. Besides, on Bub1 (setting [4]), the IC50 was greater than 20000 nM. The GI50 in assay [2] was determined as 103 nM; on Ba/F3-EGFR-WT cells, 1170 nM.

In the case of `COc1c(Cl)cccc1Nc1c(-c2ccncc2OC[C@@H]2CCCO2)[nH]c2c1C(=O)NCC2CCC(F)(F)F` (single isomer, unassigned) [Example 98], in assay [1], the “mutEGFR” value stood at 0.525 nM. On Bub1 (setting [3]), this compound registered an IC50 of 954 nM. Also, the GI50 in assay [2] worked out at 18.1 nM; at Ba/F3-EGFR-WT cells it was 444 nM.

Turning to `COc1c(Cl)cccc1Nc1c(-c2ccncc2OCC(C)(C)OC)[nH]c2c1C(=O)N[C@@H](C)C2` [Example 2, (6S)-3-(3-chloro-2-methoxyanilino)-2-[3-(2-methoxy-2-methylpropoxy)pyridin-4-yl]-6-methyl-1,5,6,7-tetrahydro-4H-pyrrolo[3,2-c]pyridin-4-one], the “mutEGFR” value in assay [1] was determined as 0.235 nM. The compound further displayed an IC50 against Bub1 (setting [3]) of 393 nM. In addition, the GI50 in assay [2] is 64.6 nM; at Ba/F3-EGFR-WT cells it was 575 nM.

As for `COc1c(Cl)cccc1Nc1c(-c2ccncc2OC[C@@H]2CN(C)CCO2)[nH]c2c1C(=O)NC1(CC1)C2` [Example 112, 3′-(3-chloro-2-methoxyanilino)-2′-(3-{[(2S)-4-methylmorpholin-2-yl]methoxy}pyridin-4-yl)-1′,7′-dihydrospiro[cyclopropane-1,6′-pyrrolo[3,2-c]pyridin]-4′(5′H)-one], the “mutEGFR” value in assay [1] is 0.193 nM. The same compound yielded an IC50 against Bub1 (setting [3]) of 7830 nM. For the same compound, the GI50 in assay [2] came out at 20.4 nM; on Ba/F3-EGFR-WT cells, 553 nM.

In the case of `COc1c(Cl)cccc1Nc1c(-c2ccncc2OCC2COC(C)(C)CO2)[nH]c2c1C(=O)NCC2C` (single isomer, unassigned) [Example 96, 3-(3-chloro-2-methoxy-anilino)-2-[3-[(5,5-dimethyl-1,4-dioxan-2-yl)methoxy]-4-pyridyl]-7-methyl-1,5,6,7-tetrahydropyrrolo[3,2-c]pyridin-4-one], in assay [1], the “mutEGFR” value worked out at 0.985 nM. Moreover, the IC50 on Bub1 (setting [4]) was greater than 20000 nM. Besides, the GI50 in assay [2] is 381 nM; at Ba/F3-EGFR-WT cells it was 3430 nM.

As for `CCc1c(Cl)cccc1Nc1c(-c2ccncc2OC[C@@H]2CCCO2)[nH]c2c1C(=O)N[C@H](C)C2` [Example 109, (6R)-3-(3-chloro-2-ethylanilino)-6-methyl-2-(3-{[(2S)-oxolan-2-yl]methoxy}pyridin-4-yl)-1,5,6,7-tetrahydro-4H-pyrrolo[3,2-c]pyridin-4-one], in assay [1], the “mutEGFR” value is 0.526 nM. Besides, on Bub1 (setting [3]), the IC50 came out at 3590 nM. The GI50 came out at 66.9 nM in assay [2] and 944 nM on Ba/F3-EGFR-WT cells.

`Cc1c(Cl)cccc1Nc1c(-c2ccncc2OCC2COCCO2)[nH]c2c1C(=O)NCC2C` (stereo not drawn) [Example 66, 3-(3-chloro-2-methyl-anilino)-2-[3-(1,4-dioxan-2-ylmethoxy)-4-pyridyl]-7-methyl-1,5,6,7-tetrahydropyrrolo[3,2-c]pyridin-4-one]: in assay [1], the “mutEGFR” value was determined as 0.145 nM. The compound also yielded an IC50 at Bub1 (setting [3]) of 1730 nM. Also, the GI50 in assay [2] worked out at 42.8 nM; at Ba/F3-EGFR-WT cells, 766 nM.

As to `COc1c(Cl)cccc1Nc1c(-c2ccncc2OCC2OCCC2(F)F)[nH]c2c1C(=O)N[C@H](C)C2` (mixture of isomers) [Example 71, (6R)-3-(3-chloro-2-methoxy-anilino)-2-{3-[(3,3-difluorotetrahydrofuran-2-yl)methoxy]-4-pyridyl}-6-methyl-1,5,6,7-tetrahydropyrrolo[3,2-c]pyridin-4-one], the “mutEGFR” value in assay [1] is 0.186 nM. This compound showed an IC50 against Bub1 (setting [3]) of 5740 nM. Moreover, the GI50 in assay [2] was found to be 42.9 nM; at Ba/F3-EGFR-WT cells, 731 nM.

In the case of `COc1c(Cl)cccc1Nc1c(-c2ccncc2OC[C@@H]2COCCO2)[nH]c2c1C(=O)NC1(CC1)C2` [Example 111, 3′-(3-chloro-2-methoxyanilino)-2′-(3-{[(2S)-1,4-dioxan-2-yl]methoxy}pyridin-4-yl)-1′,7′-dihydrospiro[cyclopropane-1,6′-pyrrolo[3,2-c]pyridin]-4′(5′H)-one], the “mutEGFR” value in assay [1] is 0.205 nM. In addition, the IC50 at Bub1 (setting [3]) turned out to be 374 nM. In addition, the GI50 in assay [2] is 19.4 nM; at Ba/F3-EGFR-WT cells, 574 nM.

For `COc1c(Cl)cccc1Nc1c(-c2ccncc2OCC2COCCO2)[nH]c2c1C(=O)NC1(CCC1)C2` (stereo not drawn) [Example 123, 3-(3-chloro-2-methoxy-anilino)-2-[3-(1,4-dioxan-2-ylmethoxy)-4-pyridyl]spiro[5,7-dihydro-1H-pyrrolo[3,2-c]pyridine-6,1′-cyclobutane]-4-one], the “mutEGFR” value in assay [1] was 0.241 nM. Also, the IC50 against Bub1 (setting [3]) was 439 nM. Also, the GI50 was found to be 33.9 nM in assay [2] and 604 nM at Ba/F3-EGFR-WT cells.

As for `COc1c(Cl)cccc1Nc1c(-c2ccncc2OCC(C)(C)OC)[nH]c2c1C(=O)NCC2CCO` (single isomer, unassigned) [Example 15, 3-(3-chloro-2-methoxyanilino)-7-(2-hydroxyethyl)-2-[3-(2-methoxy-2-methylpropoxy)pyridin-4-yl]-1,5,6,7-tetrahydro-4H-pyrrolo[3,2-c]pyridin-4-one], in assay [1], the “mutEGFR” value came to 0.158 nM. Moreover, on Bub1 (setting [3]), the IC50 worked out at 1390 nM. Further, the GI50 was determined as 192 nM in assay [2] and 895 nM at Ba/F3-EGFR-WT cells.
